Structures are written as SMILES.

The assay concerns modified version of the GPR119 receptor (94% identity to human receptor). Put plainly: cAMP production assay (LANCE cAMP kit, TR-FRET) in HEK-293 cells. The class given is cell-based. Conditions: for cAMP production in HEK-293 cells: HEK-293 cells stably expressing modified GPR119, test compounds 0.2 nM to 10 μM, one-hour incubation at ambient temperature; for Fold over baseline: increase in cAMP relative to basal levels, agonist activity if 1.5-fold or greater. Here is the method:
The assay utilized HEK-293 cells that stably express a modified version of the GPR119 receptor (94% identity to human receptor), under the control of a CMV promoter containing a tet-on element for tetracycline-inducible expression. GPR119 agonist-induced cyclic AMP (cAMP) production was measured in this cell line using the LANCE cAMP kit (Perkin Elmer, Waltham, Mass.). To generate a working stock of cells for the assay, cells were treated overnight with 1 μg/mL doxycycline at 37° C. in the presence of 5% CO2 to induce receptor expression. Cells were then harvested by enzymatic dissociation with 0.05% trypsin, resuspended in freezing medium (DMEM growth medium with 10% each of fetal bovine serum and DMSO), aliquoted and frozen at −80° C. On the day of the assay, frozen cells were thawed, washed 1× in PBS and resuspended in Hank's buffered salt solution (HBSS) containing 5 mM HEPES, 0.1% BSA and Alexa Fluor 647-conjugated anti-cAMP antibody (diluted 1:100). The cell suspension was then transferred to a Proxiplate Plus white 384-well assay plate (Perkin-Elmer) at 2000 cells/well. Test compounds at final concentrations ranging from 0.2 nM to 10 μM were added to the assay plate, followed by a one-hour incubation at ambient temperature (volume=10 μL/well). DMSO concentration was held constant at 0.5%. After incubation with test compounds, 10 μL of a detergent buffer containing a biotinylated cAMP/Europium-conjugated streptavidin complex (Europium-labeled cAMP tracer) were added to each well on the assay plate, followed by a 2-hour incubation at ambient temperature. During this incubation cAMP released from lysed cells competes with the Europium-labeled cAMP tracer for binding to the Alexa Fluor 647-conjugated antibody. […] Cellular cAMP levels were then determined by interpolation of raw signal data using a cAMP standard curve. Compounds were determined to have agonist activity if they stimulated a 1.5-fold or greater increase in cAMP relative to basal levels.
In general terms: Cyclic AMP is a second messenger, typically raised through Gs and lowered through Gi signalling.

As to `Cc1cc(N[C@H]2CCN(C3CCN(c4cnc(Cl)cn4)CC3)C2=O)cnc1S(C)(=O)=O` (stereo in doubt) [Example 135, 1-(1-(5-chloropyrazin-2-yl)piperidin-4-yl)-3-(5-methyl-6-(methylsulfonyl)pyridin-3-ylamino)pyrrolidin-2-one], the “cAMP production in HEK-293 cells” value was found to be 31.0 nmol and the Fold over baseline stood at 6.6.

For the compound `Cc1cc(N[C@H]2CCN(C3CCN(c4cnc(Cl)cn4)CC3)C2=O)c(F)cc1S(C)(=O)=O` [Example 1, (S)-1-(1-(5-chloropyrazin-2-yl)piperidin-4-yl)-3-(2-fluoro-5-methyl-4-(methylsulfonyl)phenylamino)pyrrolidin-2-one], the “cAMP production in HEK-293 cells” value amounted to 23.5 nmol and the Fold over baseline is given as 3.9.

Turning to `CCc1cnc(N2CCC(N3CC[C@H](Nc4cc(C)c(S(C)(=O)=O)cc4F)C3=O)CC2)cn1` [Example 2, (S)-1-(1-(5-ethylpyrazin-2-yl)piperidin-4-yl)-3-(2-fluoro-5-methyl-4-(methylsulfonyl)phenylamino)pyrrolidin-2-one], the “cAMP production in HEK-293 cells” value is 27.9 nmol and the Fold over baseline is on record as 4.8.

In the case of `CS(=O)(=O)c1cc(F)c(N[C@H]2CCN(C3CCN(c4cnc(Cl)cn4)CC3)C2=O)cc1F` [Example 3, (S)-1-(1-(5-chloropyrazin-2-yl)piperidin-4-yl)-3-(2,5-difluoro-4-(methylsulfonyl)phenylamino)pyrrolidin-2-one], the “cAMP production in HEK-293 cells” value worked out at 23.2 nmol and the Fold over baseline worked out at 5.0.

`CS(=O)(=O)c1ccc(N[C@H]2CCN(C3CCN(c4cnc(Cl)cn4)CC3)C2=O)c(F)c1` [Example 4, (S)-1-(1-(5-chloropyrazin-2-yl)piperidin-4-yl)-3-(2-fluoro-4-(methylsulfonyl)phenylamino)pyrrolidin-2-one]: the “cAMP production in HEK-293 cells” value came to 27.3 nmol and the Fold over baseline was 4.1.

With `CCc1cnc(N2CCC(N3CC[C@H](Nc4cc(F)c(S(C)(=O)=O)cc4F)C3=O)CC2)nc1` [Example 5, (S)-3-(2,5-difluoro-4-(methyl-sulfonyl)phenylamino)-1-(1-(5-ethylpyrimidin-2-yl)piperidin-4-yl)pyrrolidin-2-one], the “cAMP production in HEK-293 cells” value is 12.3 nmol and the Fold over baseline was found to be 2.2.

For `CS(=O)(=O)c1cc(F)c(N[C@H]2CCN(C3CCN(c4ncc(Cl)cn4)CC3)C2=O)cc1F` [Example 6, (S)-3-(2,5-difluoro-4-(methyl-sulfonyl)phenylamino)-1-(1-(5-chloropyrimidin-2-yl)piperidin-4-yl)pyrrolidin-2-one], the “cAMP production in HEK-293 cells” value amounted to 9.2 nmol and the Fold over baseline was 1.8.

In the case of `CS(=O)(=O)c1ccc(N[C@H]2CCN(C3CCN(c4ncc(Br)cn4)CC3)C2=O)c(F)c1` [Example 7, (S)-1-(1-(5-bromopyrimidin-2-yl)piperidin-4-yl)-3-(2-fluoro-4-(methylsulfonyl)phenylamino)pyrrolidin-2-one], the “cAMP production in HEK-293 cells” value worked out at 7.7 nmol and the Fold over baseline is 2.4.

Turning to `CS(=O)(=O)c1ccc(N[C@H]2CCN(C3CCN(c4ncc(C#N)cn4)CC3)C2=O)c(F)c1` [Example 8, (S)-2-(4-(3-(2-fluoro-4-(methylsulfonyl)phenylamino)-2-oxopyrrolidin-1-yl)piperidin-1-yl)pyrimidine-5-carbonitrile], the “cAMP production in HEK-293 cells” value was 8.6 nmol and the Fold over baseline turned out to be 2.5.

As for `CS(=O)(=O)c1ccc(N[C@H]2CCN(C3CCN(c4ncc(-c5ccccc5)cn4)CC3)C2=O)c(F)c1` [Example 9, (S)-3-(2-fluoro-4-(methyl-sulfonyl)phenylamino)-1-(1-(5-phenylpyrimidin-2-yl)piperidin-4-yl)pyrrolidin-2-one], the “cAMP production in HEK-293 cells” value amounted to 13.5 nmol and the Fold over baseline was 2.3.

With `CS(=O)(=O)c1ccc(N[C@H]2CCN(C3CCN(c4ncc(Cl)cn4)CC3)C2=O)c(F)c1` [Example 10, (S)-1-(1-(5-chloropyrimidin-2-yl)piperidin-4-yl)-3-(2-fluoro-4-(methylsulfonyl)phenylamino)pyrrolidin-2-one], the “cAMP production in HEK-293 cells” value was 6.5 nmol and the Fold over baseline is 2.1.

Turning to `CS(=O)(=O)c1cc(F)c(N[C@H]2CCN(C3CCN(c4cnc(C(F)(F)F)cn4)CC3)C2=O)cc1F` [Example 11, (S)-3-(2,5-difluoro-4-(methylsulfonyl)phenylamino)-1-(1-(5-(trifluoromethyl)pyrazin-2-yl)piperidin-4-yl)pyrrolidin-2-one], the “cAMP production in HEK-293 cells” value was 27.1 nmol and the Fold over baseline is 3.4.

`CS(=O)(=O)c1ccc(N[C@H]2CCN(C3CCN(c4cnc(Br)cn4)CC3)C2=O)c(F)c1` [Example 12, (S)-1-(1-(5-bromopyrazin-2-yl)piperidin-4-yl)-3-(2-fluoro-4-(methylsulfonyl)phenyl-amino)pyrrolidin-2-one]: the “cAMP production in HEK-293 cells” value was 23.4 nmol and the Fold over baseline worked out at 3.8.

In the case of `CS(=O)(=O)c1ccc(N[C@H]2CCN(C3CCN(c4cnc(C(F)(F)F)cn4)CC3)C2=O)c(F)c1` [Example 13, (S)-3-(2-fluoro-4-(methylsulfonyl)phenylamino)-1-(1-(5-(trifluoromethyl)pyrazin-2-yl)piperidin-4-yl)pyrrolidin-2-one], the “cAMP production in HEK-293 cells” value was 24.8 nmol and the Fold over baseline stood at 4.4.

Consider `CS(=O)(=O)c1ccc(N[C@H]2CCN(C3CCN(c4cnc(C#N)cn4)CC3)C2=O)c(F)c1` [Example 14, (S)-5-(4-(3-(2-fluoro-4-(methylsulfonyl)phenylamino)-2-oxopyrrolidin-1-yl)piperidin-1-yl)pyrazine-2-carbonitrile], for which the “cAMP production in HEK-293 cells” value was found to be 32.3 nmol and the Fold over baseline is reported as 5.5.

Consider `CS(=O)(=O)c1cc(F)c(N[C@H]2CCN(C3CCN(c4cnc(Br)cn4)CC3)C2=O)cc1F` [Example 15, (S)-1-(1-(5-bromopyrazin-2-yl)piperidin-4-yl)-3-(2,5-difluoro-4-(methylsulfonyl)phenylamino)pyrrolidin-2-one], for which the “cAMP production in HEK-293 cells” value was determined as 24.2 nmol and the Fold over baseline is listed as 4.2.

Regarding `CS(=O)(=O)c1cc(F)c(N[C@H]2CCN(C3CCN(c4cnc(C#N)cn4)CC3)C2=O)cc1F` [Example 16, (S)-5-(4-(3-(2,5-difluoro-4-(methylsulfonyl)phenylamino)-2-oxopyrrolidin-1-yl)piperidin-1-yl)pyrazine-2-carbonitrile], the “cAMP production in HEK-293 cells” value came to 21.4 nmol and the Fold over baseline was 4.0.

For the compound `CCS(=O)(=O)c1ccc(N[C@H]2CCN(C3CCN(c4cnc(Cl)cn4)CC3)C2=O)c(F)c1` [Example 17, (S)-1-(1-(5-chloropyrazin-2-yl)piperidin-4-yl)-3-(4-(ethylsulfonyl)-2-fluorophenylamino)pyrrolidin-2-one], the “cAMP production in HEK-293 cells” value stood at 107.3 nmol and the Fold over baseline is recorded as 5.3.

With `CS(=O)(=O)c1ccc(N[C@H]2CCN(C3CCN(c4cncc(Cl)n4)CC3)C2=O)c(F)c1` [Example 18, (S)-1-(1-(6-chloropyrazin-2-yl)piperidin-4-yl)-3-(2-fluoro-4-(methylsulfonyl)phenylamino) pyrrolidin-2-one], the “cAMP production in HEK-293 cells” value turned out to be 7.7 nmol and the Fold over baseline was determined as 1.8.

With `CCc1cnc(N2CCC(N3CC[C@H](Nc4ccc(S(C)(=O)=O)cc4F)C3=O)CC2)nc1` [Example 19, (S)-1-(1-(5-ethylpyrimidin-2-yl)piperidin-4-yl)-3-(2-fluoro-4 (methylsulfonyl)phenylamino) pyrrolidin-2-one], the “cAMP production in HEK-293 cells” value came out at 9.9 nmol and the Fold over baseline was found to be 2.1.

For the compound `CS(=O)(=O)c1cc(F)c(N[C@H]2CCN(C3CCN(c4cnc(Cl)cn4)CC3)C2=O)c(F)c1` [Example 20, (S)-1-(1-(5-chloropyrazin-2-yl)piperidin-4-yl)-3-(2,6-difluoro-4-(methylsulfonyl)phenylamino) pyrrolidin-2-one], the “cAMP production in HEK-293 cells” value turned out to be 24.4 nmol and the Fold over baseline is 6.5.

In the case of `CCc1cnc(N2CCC(N3CC[C@H](Nc4c(F)cc(S(C)(=O)=O)cc4F)C3=O)CC2)nc1` [Example 21, (S)-3-(2,6-difluoro-4-(methylsulfonyl)phenylamino)-1-(1-(5-ethylpyrimidin-2-yl)piperidin-4-yl)pyrrolidin-2-one], the “cAMP production in HEK-293 cells” value stood at 6.6 nmol and the Fold over baseline turned out to be 1.9.

In the case of `O=C1[C@@H](Nc2ncc(C(F)(F)F)cc2Cl)CCN1C1CCN(c2cnc(Cl)cn2)CC1` [Example 22, (S)-3-(3-chloro-5-(trifluoromethyl)pyridin-2-ylamino)-1-(1-(5-chloropyrazin-2-yl)piperidin-4-yl)pyrrolidin-2-one], the “cAMP production in HEK-293 cells” value is 32.7 nmol and the Fold over baseline was found to be 5.6.
